Measured values published in ChEMBL document CHEMBL1130510, “Synthesis and in vitro cytotoxicity of aminocoumarin platinum(II) complexes” (Bioorg Med Chem Lett, 1997).

tested on: Caco-2; experiment: Compound was tested in vitro for its cytotoxic activity against Caco-2T cells in MTT assay and activity is expressed as IC50; type: functional, cell-based, Homo sapiens; settings: not given

**Q.** How did the IC50 turn out when “7-Amino-4-Methyl-Coumarin Platinum (II) Complex [listing 1 of 2 here]” was run?
**A.** 100 µg/mL

**Q.** “3-Acetamido-6-Aminocoumarin Platinum (II) Complex [listing 1 of 2 here]” was tested. Which IC50 did it give?
**A.** 80 µg/mL

**Q.** Which IC50 does the source give for “7-Amino-4-Trifluoromethyl-Coumarin Platinum (II) Complex [listing 1 of 2 here]” here?
**A.** 10 µg/mL

tested on: Caco-2; experiment: Compound was tested in vitro for its cytotoxic activity against Caco-2T cells in MTT assay and activity is expressed as IC80; type: functional, cell-based; settings: Homo sapiens

**Q.** For 6-Aminocoumarin Platinum (II) Complex, which IC80 is on record?
**A.** 100 µg/mL

**Q.** “3-Acetamido-6-Aminocoumarin Platinum (II) Complex [listing 2 of 2 here]” was tested. Which IC80 did it give?
**A.** 30 µg/mL

**Q.** For “7-Amino-4-Methyl-Coumarin Platinum (II) Complex [listing 2 of 2 here]”, which IC80 is on record?
**A.** 30 µg/mL

**Q.** For “7-Amino-4-Trifluoromethyl-Coumarin Platinum (II) Complex [listing 2 of 2 here]”, which IC80 is on record?
**A.** 5 µg/mL
